{
  "source": "patent US11542259B2",
  "about": "“Compounds for the treatment of kinase-dependent disorders” (Exelixis, Inc., priority 2018, dated 2023)",
  "test": "Pharmacokinetic studies in male Sprague-Dawley rats",
  "type": "in vivo",
  "conditions": "rat; for clearance / half-life / Cmax: male, Sprague-Dawley, plasma; for half-life: read-out: t½",
  "procedure": "Pharmacokinetic properties of select compounds were assessed in male Sprague-Dawley rats.\nThe non-GLP study was designed to investigate the pharmacokinetics of chosen compounds in plasma following an intravenous or oral dose administration to male Sprague Dawley rats. […]\nAnimals in the PO group were fasted overnight prior to dose administration. Food was returned following the collection of the 4-hour blood sample. Water was not withheld.\nImmediately prior to dosing, the body weight of each animal was recorded. Doses (rounded to the nearest 0.001 mL) were calculated based on the pretreatment body weight (kg) and a dose volume of 2.5 mL/kg for intravenous administration and 5 mL/kg for oral administration. Intravenous formulations were administered via a jugular vein cannula. Immediately after dosing, the cannula was flushed with saline and the line was tied off. The oral dose was administered via a ball-tipped feeding needle. Dosing syringe volumes for administration were second-person verified prior to dosing and that volume along with the results for the concentration verification analysis were used to calculate the actual dose administered. Dosing syringes were weighed immediately prior to and immediately after dosing each animal as a gravimetric check.\nSerial blood samples (approximately 200 μL per sample) were collected from each animal at 0.083 (IV dosing only), 0.25, 0.5, 1, 2, 4, 6 (PO dosing only), 8, 24, 32, 48, and 72 hours after dosing. Blood samples were collected into tubes containing K2EDTA via the non-dosing jugular-vein cannula (JVC), which was flushed with an approximately equal volume of saline following each collection.\nBlood samples were stored on wet ice until processed to plasma by centrifugation (3500 rpm at 5° C. for 10 minutes) within 1 hour of collection. Plasma samples were transferred into matrix tubes and then stored in a −80° C. freezer.\nPlasma samples and dose formulation samples were analyzed for the compounds of interest using liquid chromatography-tandem mass spectrometry (LC-MS/MS) methods. Pharmacokinetic parameter estimates were calculated from the individual animal plasma concentration-time data using the actual dose based on the analysis of the dosing formulations, nominal sampling times (all collections were within an acceptable range of target), and non-compartmental methods. The concentration-time data were analyzed to fit either an intravenous-bolus (IV) plasma analysis model (201) or extra-vascular (P0) dosing plasma analysis model (200) using the software WinNonlin Phoenix version 6.3 (Pharsight). The single-dose pharmacokinetic parameters assessed include, as appropriate: Cmax (observed peak or maximum concentration); Tmax (observed time of peak concentration); T1/2 (terminal half-life); Vz (volume of distribution based on the terminal phase); Vss (volume of distribution at steady state); AUCINF (area under the concentration-time curve computed from time zero to infinity); AUClast (area under the concentration-time curve computed from time zero to the time of the last quantifiable concentration); C0 (back-extrapolated concentration at time zero); CL (total body clearance); Vz/F (volume of distribution for extravascular administration based on the terminal phase); CL/F (total body clearance for extravascular administration); F % (bioavailability); and MRTlast (mean residence time).\nAreas-under-the-plasma concentration-time curves (AUC) were estimated using the linear-log trapezoidal rule. The area through the time (Tlast) of the last observable concentration (Clast) is reported as AUClast. AUC extrapolated to infinity, (AUCINF) was estimated by adding AUClast and the ratio of Clast/λz, where λz is the terminal rate constant. Apparent terminal half-life (T1/2) was calculated as ln(2)/λz and determined using the slope of the log-linear terminal phase of the concentration-time curve, defined by a minimum of three plasma concentration-time points. […]",
  "note": "Where two headings read alike, the source gives them in different places.",
  "data": [
    {"smiles": "COc1cc2nccc(Oc3ccc(NC(=O)C4(C(=O)Nc5ccc(F)cc5)CC4)cc3)c2cc1C(N)=O", "note": "[Compound 7, 1-N-[4-(6-carbamoyl-7-methoxyquinolin-4-yl)oxyphenyl]-1-N′-(4-fluorophenyl)cyclopropane-1,1-dicarboxamide]", "values": [
      {"measurement": "clearance", "setting": "IV (1 mg/kg)", "result": 1.48, "unit": "mL/min/kg"},
      {"measurement": "half-life", "setting": "IV (1 mg/kg)", "result": 3.1, "unit": "h"},
      {"measurement": "Cmax", "setting": "PO (3 mg/kg)", "result": 8.8, "unit": "µM"},
      {"measurement": "half-life", "setting": "PO (3 mg/kg)", "result": 7.3, "unit": "h"}
    ]},
    {"smiles": "CNC(=O)c1cc2c(Oc3ccc(NC(=O)C4(C(=O)Nc5ccc(F)cc5)CC4)cc3)ccnc2cc1OC", "note": "[Compound 8, 1-N′-(4-fluorophenyl)-1-N-[4-[7-methoxy-6-(methylcarbamoyl)quinolin-4-yl]oxyphenyl]cyclopropane-1,1-dicarboxamide]", "values": [
      {"measurement": "clearance", "setting": "IV (3 mg/kg)", "result": 0.717, "unit": "mL/min/kg"},
      {"measurement": "half-life", "setting": "IV (3 mg/kg)", "result": 5.4, "unit": "h"},
      {"measurement": "Cmax", "setting": "PO (3 mg/kg)", "result": 11.4, "unit": "µM"},
      {"measurement": "half-life", "setting": "PO (3 mg/kg)", "result": 7.1, "unit": "h"}
    ]},
    {"smiles": "CCNC(=O)c1cc2c(Oc3ccc(NC(=O)C4(C(=O)Nc5ccc(F)cc5)CC4)cc3)ccnc2cc1OC", "note": "[Compound 9, 1-N-[4-[6-(ethylcarbamoyl)-7-methoxyquinolin-4-yl]oxyphenyl]-1-N′-(4-fluorophenyl)cyclopropane-1,1-dicarboxamide]", "values": [
      {"measurement": "clearance", "setting": "IV (3 mg/kg)", "result": 2.53, "unit": "mL/min/kg"},
      {"measurement": "half-life", "setting": "IV (3 mg/kg)", "result": 2.8, "unit": "h"},
      {"measurement": "Cmax", "setting": "PO (3 mg/kg)", "result": 3.9, "unit": "µM"},
      {"measurement": "half-life", "setting": "PO (3 mg/kg)", "result": 2.6, "unit": "h"},
      {"measurement": "F", "setting": "PO (3 mg/kg)", "result": "F = 69%"}
    ]},
    {"smiles": "CONC(=O)c1cc2c(Oc3ccc(NC(=O)C4(C(=O)Nc5ccc(F)cc5)CC4)cc3)ccnc2cc1OC", "note": "[Compound 17, 1-N′-(4-fluorophenyl)-1-N-[4-[7-methoxy-6-(methoxycarbamoyl)quinolin-4-yl]oxyphenyl]cyclopropane-1,1-dicarboxamide]", "values": [
      {"measurement": "clearance", "setting": "IV (3.0 mg/kg)", "result": 1.7, "unit": "mL/min/kg"},
      {"measurement": "half-life", "setting": "IV (3.0 mg/kg)", "result": 3, "unit": "h"},
      {"measurement": "Cmax", "setting": "PO (3.2 mg/kg)", "result": 3.4, "unit": "µM"},
      {"measurement": "half-life", "setting": "PO (3.2 mg/kg)", "result": 4.5, "unit": "h"},
      {"measurement": "F", "setting": "PO (3.2 mg/kg)", "result": "F = 46%"}
    ]},
    {"smiles": "COc1cc2nccc(Oc3ccc(NC(=O)C4(C(=O)Nc5ccc(F)cc5)CC4)cc3)c2cc1-c1ncco1", "note": "[Compound 45, 1-N′-(4-fluorophenyl)-1-N-[4-[7-methoxy-6-(1,3-oxazol-2-yl)quinolin-4-yl]oxyphenyl]cyclopropane-1,1-dicarboxamide]", "values": [
      {"measurement": "clearance", "setting": "IV (1 mg/kg)", "result": 0.683, "unit": "mL/min/kg"},
      {"measurement": "half-life", "setting": "IV (1 mg/kg)", "result": 10.1, "unit": "h"},
      {"measurement": "Cmax", "setting": "PO (3 mg/kg)", "result": 15.3, "unit": "µM"},
      {"measurement": "half-life", "setting": "PO (3 mg/kg)", "result": 5.7, "unit": "h"}
    ]},
    {"smiles": "COc1cc2nccc(Oc3ccc(NC(=O)C4(C(=O)Nc5ccc(F)cc5)CC4)cc3)c2cc1-c1ncc[nH]1", "note": "[Compound 191, 1-N′-(4-Fluorophenyl)-1-N-[4-[6-(1H-imidazol-2-yl)-7-methoxyquinolin-4-yl]oxyphenyl]cyclopropane-1,1-dicarboxamide]", "values": [
      {"measurement": "clearance", "setting": "IV (3.0 mg/kg)", "result": 1.05, "unit": "mL/min/kg"},
      {"measurement": "half-life", "setting": "IV (3.0 mg/kg)", "result": 9.9, "unit": "h"},
      {"measurement": "Cmax", "setting": "PO (3.1 mg/kg)", "result": 4.6, "unit": "µM"},
      {"measurement": "half-life", "setting": "PO (3.1 mg/kg)", "result": 6.8, "unit": "h"},
      {"measurement": "F", "setting": "PO (3.1 mg/kg)", "result": "F = 38%"}
    ]},
    {"smiles": "COc1cc2nccc(Oc3ccc(NC(=O)C4(C(=O)Nc5ccc(F)cc5)CC4)cc3)c2cc1S(N)(=O)=O", "note": "[Compound 206, 1-N′-(4-Fluorophenyl)-1-N-[4-(7-methoxy-6-sulfamoylquinolin-4-yl)oxyphenyl]cyclopropane-1,1-dicarboxamide]", "values": [
      {"measurement": "clearance", "setting": "IV (3 mg/kg)", "result": 8.52, "unit": "mL/min/kg"},
      {"measurement": "half-life", "setting": "IV (3 mg/kg)", "result": 2.1, "unit": "h"},
      {"measurement": "Cmax", "setting": "PO (3 mg/kg)", "result": 0.7, "unit": "µM"},
      {"measurement": "half-life", "setting": "PO (3 mg/kg)", "result": 2.9, "unit": "h"},
      {"measurement": "F", "setting": "PO (3 mg/kg)", "result": "F = 37%"}
    ]}
  ]
}
